Results as given in US6358538B1, “Method for protecting plants from fungus” (priority 1999, dated 2002).

Test system: fungus
Source text: Various fertilizer quality nitrate salts have been used to test this effect, particularly potassium nitrate, ammonium nitrate, calcium nitrate, and sodium nitrate.

## O=[N+]([O-])O [nitrate ions, nitrate]
At the sprinkler/mist head, plants in open ground plots, approx. 10 pounds nitrate salts per acre in approx. 1,000 gallons of water
  concentration of nitrate ions in the solution found to be generally effective: 700 parts per million of water
Weak solutions, fungi on ground surface and plant surfaces, under certain conditions
  effect on germination of fungal spores and subsequent development: fungistatic effect
